The source made the active and inactive calls. The rule behind the calls is not given here.
Assays:
[1] = target: T1, Orexin/Hypocretin receptor type 1 (Homo sapiens, UniProt O43613); assay: Antagonist activity against human orexin 1 receptor expressed in CHO cells assessed as effect in calcium mobilization by FLIPR assay; format: functional, cell-based
T1 sequence (O43613 whole entry): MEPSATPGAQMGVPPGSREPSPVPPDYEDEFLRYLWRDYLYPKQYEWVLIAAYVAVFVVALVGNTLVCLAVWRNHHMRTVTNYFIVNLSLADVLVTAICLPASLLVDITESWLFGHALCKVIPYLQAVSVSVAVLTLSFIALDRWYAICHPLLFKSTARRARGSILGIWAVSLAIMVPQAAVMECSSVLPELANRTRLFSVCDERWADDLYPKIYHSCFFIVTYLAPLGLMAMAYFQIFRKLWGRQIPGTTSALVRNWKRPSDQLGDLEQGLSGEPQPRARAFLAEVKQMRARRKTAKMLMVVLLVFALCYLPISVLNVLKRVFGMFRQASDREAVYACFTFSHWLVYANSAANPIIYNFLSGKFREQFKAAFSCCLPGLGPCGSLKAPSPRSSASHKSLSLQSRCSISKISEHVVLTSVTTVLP

Orexin receptor type 2 = target: T2, Orexin receptor type 2 (Homo sapiens, UniProt O43614); assay: Antagonist activity against human orexin 2 receptor expressed in CHO cells assessed as effect in calcium mobilization by FLIPR assay; format: functional, cell-based
T2 sequence (O43614 whole entry): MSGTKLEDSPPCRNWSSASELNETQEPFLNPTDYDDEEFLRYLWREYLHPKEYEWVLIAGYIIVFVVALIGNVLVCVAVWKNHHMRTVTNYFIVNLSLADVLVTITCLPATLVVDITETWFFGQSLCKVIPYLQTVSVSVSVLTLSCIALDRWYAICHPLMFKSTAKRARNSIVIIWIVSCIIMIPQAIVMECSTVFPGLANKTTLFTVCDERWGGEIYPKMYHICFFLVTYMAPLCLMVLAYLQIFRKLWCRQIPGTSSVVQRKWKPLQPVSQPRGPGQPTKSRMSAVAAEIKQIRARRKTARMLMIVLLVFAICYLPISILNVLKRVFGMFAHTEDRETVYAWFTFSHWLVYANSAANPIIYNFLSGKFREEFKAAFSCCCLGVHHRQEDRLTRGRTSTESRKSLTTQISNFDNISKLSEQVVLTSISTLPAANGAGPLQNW

Cytochrome P450 3A4 [2] = target: T3, Cytochrome P450 3A4 (Homo sapiens, UniProt P08684); assay: Inhibition of CYP3A4 using DEF substrate by CYPEX bactosome P450 inhibition assay; format: ADME
T3 sequence (P08684 whole entry): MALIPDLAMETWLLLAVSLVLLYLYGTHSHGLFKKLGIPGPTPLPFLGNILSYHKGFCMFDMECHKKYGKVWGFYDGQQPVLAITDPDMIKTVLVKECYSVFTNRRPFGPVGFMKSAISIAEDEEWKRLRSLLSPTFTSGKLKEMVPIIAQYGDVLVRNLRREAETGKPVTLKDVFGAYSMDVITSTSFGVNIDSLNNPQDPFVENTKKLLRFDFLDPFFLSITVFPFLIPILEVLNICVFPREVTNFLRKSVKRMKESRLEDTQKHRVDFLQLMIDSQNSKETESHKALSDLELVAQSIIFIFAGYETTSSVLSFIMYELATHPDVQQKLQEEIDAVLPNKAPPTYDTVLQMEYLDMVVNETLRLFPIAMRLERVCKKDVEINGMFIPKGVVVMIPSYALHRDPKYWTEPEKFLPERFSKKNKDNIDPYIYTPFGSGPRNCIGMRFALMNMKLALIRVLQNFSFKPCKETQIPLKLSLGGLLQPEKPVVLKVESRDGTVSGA

Cytochrome P450 2C9 = Cytochrome P450 2C9 (Homo sapiens, UniProt P11712); assay: Inhibition of CYP2C9 by CYPEX bactosome P450 inhibition assay; format: ADME
Chain of Cytochrome P450 2C9 (P11712 whole entry): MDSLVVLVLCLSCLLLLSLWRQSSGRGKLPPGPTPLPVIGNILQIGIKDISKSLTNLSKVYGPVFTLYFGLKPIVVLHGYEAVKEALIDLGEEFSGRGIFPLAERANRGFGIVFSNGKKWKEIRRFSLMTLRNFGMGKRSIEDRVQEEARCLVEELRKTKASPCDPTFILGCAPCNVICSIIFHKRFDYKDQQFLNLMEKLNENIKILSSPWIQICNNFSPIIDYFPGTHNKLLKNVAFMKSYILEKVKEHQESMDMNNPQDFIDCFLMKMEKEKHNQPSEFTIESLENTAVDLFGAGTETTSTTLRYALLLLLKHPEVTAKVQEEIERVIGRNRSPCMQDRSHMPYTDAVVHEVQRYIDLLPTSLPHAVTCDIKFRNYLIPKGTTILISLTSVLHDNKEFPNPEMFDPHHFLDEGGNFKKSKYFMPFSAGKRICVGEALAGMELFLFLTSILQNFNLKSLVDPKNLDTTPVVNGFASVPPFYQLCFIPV

Cytochrome P450 3A4 [3] = target: T3, Cytochrome P450 3A4; assay: Inhibition of CYP3A4 by CYPEX bactosome P450 inhibition assay; format: ADME
[4] = target: T4, Orexin/Hypocretin receptor type 1 (Rattus norvegicus) (UniProt P56718); assay: Antagonist activity against rat orexin 1 receptor expressed in RBL cells by [3H]inositol phosphate accumulation assay; format: functional, cell-based
T4 sequence (whole entry): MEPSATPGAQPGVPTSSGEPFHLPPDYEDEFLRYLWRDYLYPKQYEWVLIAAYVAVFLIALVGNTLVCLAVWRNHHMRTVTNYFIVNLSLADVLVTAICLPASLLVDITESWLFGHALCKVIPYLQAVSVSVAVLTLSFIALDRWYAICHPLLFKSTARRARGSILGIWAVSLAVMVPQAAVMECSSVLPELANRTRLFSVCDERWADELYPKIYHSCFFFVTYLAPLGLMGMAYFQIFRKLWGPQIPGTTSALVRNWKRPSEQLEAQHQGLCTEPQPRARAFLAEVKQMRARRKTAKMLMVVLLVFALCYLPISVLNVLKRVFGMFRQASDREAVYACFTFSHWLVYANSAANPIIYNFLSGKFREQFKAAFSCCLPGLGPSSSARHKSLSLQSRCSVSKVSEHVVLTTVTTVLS

Cytochrome P450 2C19 = Cytochrome P450 2C19 (Homo sapiens, UniProt P33261); assay: Inhibition of CYP2C19 by CYPEX bactosome P450 inhibition assay; format: ADME
Chain of Cytochrome P450 2C19 (P33261 whole entry): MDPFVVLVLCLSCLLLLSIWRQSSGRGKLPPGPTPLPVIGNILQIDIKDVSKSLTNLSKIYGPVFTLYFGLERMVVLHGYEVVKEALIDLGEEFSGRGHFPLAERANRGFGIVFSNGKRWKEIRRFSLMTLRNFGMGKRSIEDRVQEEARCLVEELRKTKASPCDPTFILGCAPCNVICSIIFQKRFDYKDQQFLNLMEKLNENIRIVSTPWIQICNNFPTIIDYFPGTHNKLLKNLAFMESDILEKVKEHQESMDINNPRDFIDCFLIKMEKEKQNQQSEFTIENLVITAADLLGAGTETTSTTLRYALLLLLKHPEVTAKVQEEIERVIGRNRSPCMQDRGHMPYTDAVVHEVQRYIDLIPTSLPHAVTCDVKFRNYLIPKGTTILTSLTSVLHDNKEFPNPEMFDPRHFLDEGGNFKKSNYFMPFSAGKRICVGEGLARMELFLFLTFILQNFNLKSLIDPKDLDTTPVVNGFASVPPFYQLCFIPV

Cytochrome P450 1A2 = target: T5, Cytochrome P450 1A2 (Homo sapiens, UniProt P05177); assay: Inhibition of CYP1A2 by CYPEX bactosome P450 inhibition assay; format: ADME
T5 sequence (P05177 whole entry): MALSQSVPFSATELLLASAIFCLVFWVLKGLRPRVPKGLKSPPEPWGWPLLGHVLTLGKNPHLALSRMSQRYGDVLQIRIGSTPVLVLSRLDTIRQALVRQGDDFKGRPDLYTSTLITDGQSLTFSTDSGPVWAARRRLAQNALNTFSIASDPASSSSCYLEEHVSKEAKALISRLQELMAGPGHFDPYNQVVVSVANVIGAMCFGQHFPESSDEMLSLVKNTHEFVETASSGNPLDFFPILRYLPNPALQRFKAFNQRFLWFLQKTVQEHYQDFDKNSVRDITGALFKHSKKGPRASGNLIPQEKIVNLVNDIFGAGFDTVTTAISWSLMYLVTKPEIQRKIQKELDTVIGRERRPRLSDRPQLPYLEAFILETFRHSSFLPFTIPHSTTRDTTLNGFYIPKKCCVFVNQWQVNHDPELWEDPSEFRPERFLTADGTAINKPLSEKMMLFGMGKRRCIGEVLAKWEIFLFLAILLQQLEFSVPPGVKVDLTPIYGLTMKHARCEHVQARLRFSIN

[5] = target: T6, Orexin receptor type 2 (Rattus norvegicus) (UniProt P56719); assay: Antagonist activity against rat orexin 2 receptor expressed in RBL cells by [3H]inositol phosphate accumulation assay; format: functional, cell-based
T6 sequence (whole entry): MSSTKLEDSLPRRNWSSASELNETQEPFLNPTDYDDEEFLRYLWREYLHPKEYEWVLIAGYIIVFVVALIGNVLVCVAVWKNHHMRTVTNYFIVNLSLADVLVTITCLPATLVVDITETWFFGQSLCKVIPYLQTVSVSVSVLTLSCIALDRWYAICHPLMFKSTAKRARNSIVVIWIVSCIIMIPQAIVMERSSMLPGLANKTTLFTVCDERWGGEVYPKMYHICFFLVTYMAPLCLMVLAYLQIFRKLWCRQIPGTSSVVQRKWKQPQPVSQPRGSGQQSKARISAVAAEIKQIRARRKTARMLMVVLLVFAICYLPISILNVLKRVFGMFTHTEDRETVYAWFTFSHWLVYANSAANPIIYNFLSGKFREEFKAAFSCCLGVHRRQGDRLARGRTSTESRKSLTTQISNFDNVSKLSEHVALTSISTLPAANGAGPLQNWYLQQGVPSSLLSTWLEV

Cytochrome P450 2D6 = Cytochrome P450 2D6 (Homo sapiens, UniProt P10635); assay: Inhibition of CYP2D6 by CYPEX bactosome P450 inhibition assay; format: ADME
Chain of Cytochrome P450 2D6 (P10635 whole entry): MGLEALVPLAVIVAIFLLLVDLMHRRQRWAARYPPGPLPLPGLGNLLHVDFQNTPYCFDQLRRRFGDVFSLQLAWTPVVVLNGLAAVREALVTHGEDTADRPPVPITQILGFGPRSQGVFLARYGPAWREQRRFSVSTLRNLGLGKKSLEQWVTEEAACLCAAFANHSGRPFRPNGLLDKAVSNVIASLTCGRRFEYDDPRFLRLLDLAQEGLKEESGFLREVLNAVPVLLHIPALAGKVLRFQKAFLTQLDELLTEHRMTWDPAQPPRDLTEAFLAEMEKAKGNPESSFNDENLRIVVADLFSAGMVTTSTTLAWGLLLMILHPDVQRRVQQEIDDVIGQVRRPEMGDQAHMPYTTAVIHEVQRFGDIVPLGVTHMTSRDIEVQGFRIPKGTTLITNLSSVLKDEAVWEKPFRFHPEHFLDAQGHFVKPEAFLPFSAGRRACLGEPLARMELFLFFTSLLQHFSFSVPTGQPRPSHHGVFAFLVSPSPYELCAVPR

SMILES | Ki [1] [µM] | Ki (Orexin receptor type 2) [µM] | also measured
Cc1occc1-c1nnc(SCC(=O)Nc2ccc(Cl)cc2)n1Cc1ccco1 | 2 | 0.1 | –
Cc1cccc(C)c1NC(=O)CSc1nnc(-c2ccoc2C)n1Cc1ccco1 | > 15.8 | > 15.8 | –
Cc1cccc(NC(=O)CSc2nnc(-c3ccoc3C)n2Cc2ccco2)c1 | 2.51 | 0.0501 | –
Cc1cc(C)cc(NC(=O)CSc2nnc(-c3ccoc3C)n2Cc2ccco2)c1 | 0.794 | 0.00158 | IC50 (Cytochrome P450 3A4 [2]): 2 µM; IC50 (Cytochrome P450 2C9): > 5 µM; IC50 (Cytochrome P450 3A4 [3]): > 5 µM; inhibition [4]: Active; IC50 (Cytochrome P450 2C19): > 5 µM; IC50 (Cytochrome P450 1A2): > 5 µM; inhibition [5]: Active; IC50 (Cytochrome P450 2D6): > 5 µM
COc1ccc(NC(=O)CSc2nnc(-c3ccoc3C)n2Cc2ccco2)cc1 | > 15.8 | 0.2 | –
COc1ccc(C)cc1NC(=O)CSc1nnc(-c2ccoc2C)n1Cc1ccco1 | 2.51 | 0.0158 | –
Cc1occc1-c1nnc(SCC(=O)Nc2ccccc2)n1Cc1ccco1 | > 15.8 | 1 | –
Cc1occc1-c1nnc(SCC(=O)Nc2cccc(F)c2)n1Cc1ccco1 | > 15.8 | 0.501 | –
Cc1occc1-c1nnc(SCC(=O)Nc2ccc(F)c(Cl)c2)n1Cc1ccco1 | 1 | 0.0398 | –
Cc1occc1-c1nnc(SCC(N)=O)n1Cc1ccco1 | > 15.8 | > 15.8 | –
Cc1cc(C)cc(N(C(=O)CSc2nnc(-c3ccoc3C)n2Cc2ccco2)c2cccnc2)c1 | > 15.8 | 2 | –
Cc1cccc(NC(=O)CSc2nnc(-c3ccoc3C)n2Cc2ccco2)c1C | > 15.8 | > 15.8 | –
Cc1nc(C(=O)N2CCCC[C@H]2CNC(=O)c2cccc3occc23)c(-c2ccc(F)cc2)s1 [SB-649868] | 0.000316 | 0.000398 | –
Cc1nnc(NC(=O)CSc2nnc(-c3ccoc3C)n2Cc2ccco2)s1 | > 15.8 | 0.398 | –
Cc1cc(C)cc(N(C(=O)CSc2nnc(-c3ccoc3C)n2Cc2ccco2)c2ccccn2)c1 | > 15.8 | 0.398 | –
Cc1occc1-c1nnc(SCC(=O)Nc2ccc(N(C)C)cc2)n1Cc1ccco1 | 0.794 | 0.158 | –
Cc1ccc(NC(=O)CSc2nnc(-c3ccoc3C)n2Cc2ccco2)c(C)c1 | 1.26 | 0.501 | –

SMILES | Ki [1] [µM] | Ki (Orexin receptor type 2) [µM] | also measured
CC(=O)c1ccc(NC(=O)CSc2nnc(-c3ccoc3C)n2Cc2ccco2)cc1 | 2.51 | 0.0316 | –
CCC(C)NC(=O)CSc1nnc(-c2ccoc2C)n1Cc1ccco1 (stereo not given) | > 15.8 | > 15.8 | –
Cc1occc1-c1nnc(SCC(=O)Nc2ccc(F)cc2)n1Cc1ccco1 | > 15.8 | 0.158 | –
CC(=O)c1cccc(NC(=O)CSc2nnc(-c3ccoc3C)n2Cc2ccco2)c1 | 3.16 | 0.316 | –
Cc1occc1-c1nnc(SCC(=O)NCCc2ccccc2)n1Cc1ccco1 | > 15.8 | 1.58 | –
Cc1ccc(NC(=O)CSc2nnc(-c3ccoc3C)n2Cc2ccco2)cc1C | 0.631 | 0.00251 | –
Cc1occc1-c1nnc(SCC(=O)Nc2cccc(Cl)c2)n1Cc1ccco1 | 2 | 0.0631 | –
Cc1ccc(C)c(NC(=O)CSc2nnc(-c3ccoc3C)n2Cc2ccco2)c1 | > 15.8 | – | –
Cc1ccc(NC(=O)CSc2nnc(-c3ccoc3C)n2Cc2ccco2)cc1 | > 15.8 | 0.0398 | –
Cc1occc1-c1nnc(SCC(=O)Nc2cccc(-c3ccc4c(c3)OCO4)c2)n1Cc1ccco1 | > 15.8 | 0.251 | –
Cc1csc(NC(=O)CSc2nnc(-c3ccoc3C)n2Cc2ccco2)n1 | > 15.8 | 0.1 | –
Cc1occc1-c1nnc(SCC(=O)Nc2ccccc2F)n1Cc1ccco1 | > 15.8 | 2 | –
Cc1occc1-c1nnc(SCC(=O)NN2CCc3ccccc32)n1Cc1ccco1 | > 15.8 | 1 | –
Cc1ccccc1NC(=O)CSc1nnc(-c2ccoc2C)n1Cc1ccco1 | > 15.8 | > 15.8 | –
Cc1occc1-c1nnc(SCC(=O)Nc2nccs2)n1Cc1ccco1 | > 15.8 | 1 | –
Cc1cc(C)cc(N(C(=O)CSc2nnc(-c3ccoc3C)n2Cc2ccco2)C2CNCCN2)c1 (stereo not given) | > 15.8 | 0.631 | –
COc1ccccc1NC(=O)CSc1nnc(-c2ccoc2C)n1Cc1ccco1 | > 15.8 | 0.501 | –

— ChEMBL document CHEMBL1268981, “2-Methyl-3-furanyl-4H-1,2,4-triazol-3-ylthioamides: a new class of selective orexin 2 antagonists” (Bioorg Med Chem Lett, 2010)
